Assay [1] relates to blood glucose level. Nature of the assay: Hypoglycemic activity in obese diabetic mice (Table 1). In kind it is in vivo, male viable yellow obese-diabetic mice. As to conditions: for response vs control in vivo at 50 mg/kg / response vs control in vivo at 100 mg/kg: Mus musculus, ip, intraperitoneal; for ability to lower blood glucose levels in mammals: compared to structurally similar compounds known in the art, in words. On the procedure:
The hypoglycemic activity of the compounds of the present invention was determined by testing the efficacy of the compounds in vivo in male viable yellow obese-diabetic mice. The test procedure is described in detail below.
Test formulations were prepared by dissolving the test compound in a saline solution containing 2% Emulphor (a polyoxyethylated vegetable oil surfactant from GAP Corp.) to provide the dose level desired. Each test formulation was administered to six viable yellow obese-diabetic mice intraperitoneally at the beginning of the experiment. Blood glucose levels were determined immediately before the first dose and at 2 and 4 hours thereafter using glucose oxidase. A mean was taken of the 6 values obtained before the first dose and at the 2 and 4 hour intervals. In Table 1, Column 1 provides the example number of the test compound, Column 2 provides the dose level of compound tested, and Columns 3 and 4 provide a measurement of the test animal's blood glucose level 2 and 4 hours after test compound administration, respectively, as a percentage of the test animal' s pre-administration blood glucose level.

Assay [2] deals with T1, Human liver cathepsin D (Homo sapiens, UniProt P07339).
T1 construct: purchased Athens Research and Technology, Athens, Ga; host or cells: human liver
Nature of the assay: Cathepsin D inhibition, fluorometric assay (Tables 5 and 6). The class given is biochemical. To be noted: for inhibition at 4.15 µg/mL (stock): Compound Stock Concentration 4.15 μg/ml; for ability to inhibit cathepsin D: compared to structurally similar compounds known in the art, in words; for inhibition at 10 µg/mL (stock): Compound Stock Concentration 10.0 μg/ml; for inhibition at 8.3 µg/mL (stock): Compound Stock Concentration 8.3 μg/ml. On the procedure:
Human liver cathepsin D (Athens Research and Technology, Athens, Ga.) was diluted in assay buffer, 200 mM NaOAc, pH 4.5, 150 mM NaCl to 500 ng/mL and then 100 μL of this cathepsin D solution was added to each well of a 96 well plate with the exception of control wells which received just 100 μL of assay buffer. […] Blank and enzyme control wells each received 5 μL of the DMSO vehicle.
After incubation at 37° C. for 30 minutes, cathepsin D activity was terminated by the addition of 100 μL per well of 400 mU/mL microsomal leucine aminopeptidase (EC 3.4.11.2, Sigma, St. Louis, Mo.) in 1M Tris-HCl, pH 8.0.
Following a two hour incubation at 37° C., to allow the aminopeptidase to release the fluorophore, 7-amido-4-methylcoumarin (AMC) from the products of cathepsin D cleavage, the plates were again analyzed in the fluorometer. In order to check for potential false positives, i.e., inhibitors of microsomal leucine aminopeptidase, residual aminopeptidase activity was monitored directly in each well by the addition of 20 μL/well of 2.5 mM Leu-pNA (Bachem Biosciences, Philadelphia, Pa.) in 10% DMSO.

Where [3] appears, read: 2 h, 2 hrs, read-out: Percent of Initial Blood Glucose Level After 2 hrs.
Setting [4] is: 4 h, 4 hrs, read-out: Percent of Initial Blood Glucose Level After 4 hrs.

Like-named read-outs stand apart in the source and are kept apart here.

T1 sequence (P07339 169-412 limits assumed): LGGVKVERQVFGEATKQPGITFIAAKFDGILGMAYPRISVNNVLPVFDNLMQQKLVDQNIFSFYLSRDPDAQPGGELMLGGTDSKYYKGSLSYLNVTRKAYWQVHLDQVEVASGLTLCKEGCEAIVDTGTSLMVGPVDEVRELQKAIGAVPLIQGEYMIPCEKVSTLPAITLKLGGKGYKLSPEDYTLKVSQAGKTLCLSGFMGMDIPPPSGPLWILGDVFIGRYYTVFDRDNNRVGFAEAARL
T1 sequence (P07339 65-161 limits assumed): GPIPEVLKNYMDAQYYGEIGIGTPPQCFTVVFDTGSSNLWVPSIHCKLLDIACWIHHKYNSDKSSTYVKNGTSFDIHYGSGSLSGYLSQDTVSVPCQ

As a reminder, the IC50 is the concentration needed to halve the response being measured. Read a low IC50 as higher potency. By inhibition is commonly meant the percentage by which the read-out fell short of the control. Low values mean a response near the control, high ones a response far below the control. Take `O=C1NC(=S)SC1=Cc1ccc2ccccc2c1` [Example 35, 5-[(2-naphthalenyl)methylene)-2-thioxo-4-thiazolidinone]: the response vs control in vivo at 50 mg/kg was determined as 83 ± 5% in assay [1] (setting [3]) and 85 ± 6% in assay [1] (setting [4]). In addition, the IC50 in assay [2] came to 8.9 µM. In assay [2], this compound came in with an inhibition at 4.15 µg/mL (stock) of 57%.

`CC(=C1SC(=S)NC1=O)c1cccc(Oc2ccccc2)c1` [Example 78, 5-[(3-phenoxyphenyl)methylmethylene]-2-thioxo-4-thiazolidinone]: in assay [2], inhibition was half-maximal at 22.1 µM (IC50) and the inhibition at 4.15 µg/mL (stock) came to 41%.

In the case of `COc1c(C(C)(C)C)cc(C=C2SC(=S)NC2=O)cc1C(C)(C)C` [Example 87, 5-[[3,5-bis(1,1-dimethylethyl)-4-methoxyphenyl]methylene]-2-thioxo-4-thiazolidinone], in assay [2], the IC50 amounted to 2.2 µM.

Turning to `CN1C(=O)C(=Cc2ccc(O)c(C(C)(C)C)c2)SC1=S` [Example 92, 5-[[3-(1,1-dimethylethyl)-4-hydroxyphenyl]methylene]-2-thioxo-3-methyl-4-thiazolidinone], in assay [2], the IC50 amounted to 3.9 µM, the inhibition at 4.15 µg/mL (stock) came out at 74% and the “ability to inhibit cathepsin D” value is recorded as “surprising ability to inhibit cathepsin D levels”.

Regarding `CCCOc1cc(C=C2SC(=S)NC2=O)ccc1OCC` [Example 50, 5-[(3-propoxy-4-ethoxyphenyl)methylene]-2-thioxo-4-thiazolidinone], the figures for the response vs control in vivo at 50 mg/kg in assay [1] (setting [3]) and in assay [1] (setting [4]) were 75 ± 5% and 69 ± 5%, respectively. Moreover, the “ability to lower blood glucose levels in mammals” value in assay [1] is on record as “surprising ability to lower blood glucose levels in mammals”. Further, the inhibition at 4.15 µg/mL (stock) in assay [2] was 40%.

On to `O=C1NC(=S)SC1=Cc1ccc(O)cc1` [Example 8, 5-[(4-hydroxyphenyl)methylene]-2-thioxo-4-thiazolidinone], for which the response vs control in vivo at 50 mg/kg in assay [1] (setting [3]) worked out at 94 ± 4%; in assay [1] (setting [4]) it was 84 ± 6%. The compound also returned an inhibition at 10 µg/mL (stock) in assay [2] of 64%.

`CCOc1cc(C=C2SC(=S)N(C)C2=O)cc(CSc2ccccc2)c1O` [Example 73]: the IC50 in assay [2] (50% inhibition of cathepsin D) came out at 9.9 µM. In assay [2], this compound displayed an inhibition at 4.15 µg/mL (stock) of 69% and an inhibition at 8.3 µg/mL (stock) of 76%.

With `CCOc1cc(C=C2SC(=S)N(C3CCCCC3)C2=O)ccc1O` [Example 84, 5-[(3-ethoxy-4-hydroxyphenyl)methylene]-2-thioxo-3-cyclohexyl-4-thiazolidinone], the inhibition at 4.15 µg/mL (stock) in assay [2] came to 51%.

The compound `CC(=C1SC(=S)NC1=O)c1ccc2ccccc2c1` [Example 76, 5-[(2-naphthyl)methylmethylene]-2-thioxo-4-thiazolidinone] registered an inhibition at 10 µg/mL (stock) in assay [2] of 32%.

`CCOc1cc(C=C2SC(=S)N(CC(=O)O)C2=O)cc(CSc2ccccc2)c1O` [Example 74, 5-[[3-ethoxy-4-hydroxy-5-(methylthiophenyl)phenyl]methylene]-4-oxo-2-thioxo-3-thiazolidine acetic acid] showed an IC50 in assay [2] (50% inhibition of cathepsin D) of 5.8 µM. For the same compound, in assay [2], the inhibition at 8.3 µg/mL (stock) is 95% and the “ability to inhibit cathepsin D” value was “surprising ability to inhibit cathepsin D levels”.

In turn, `CCOc1cc(C=C2SC(=S)NC2=O)cc(CSc2ccccc2)c1O` [Example 72] showed an IC50 in assay [2] (50% inhibition of cathepsin D) of 1.7 µM. In assay [2], this compound registered an inhibition at 4.15 µg/mL (stock) of 88% and an inhibition at 8.3 µg/mL (stock) of 96%.

The compound `CN1C(=O)C(=Cc2cc(C(C)(C)C)c(O)c(C(C)(C)C)c2)SC1=S` [Example 85, 5-[[3,5-bis(1,1-dimethylethyl)-4-hydroxyphenyl]methylene]-2-thioxo-3-methyl-4-thiazolidinone] yielded an IC50 in assay [2] of 14.3 µM.

For the compound `CCCCOc1ccc(C=C2SC(=S)N(N(C)C)C2=O)cc1OCCCC` [Example 94, 5-[(3,4-dibutoxyphenyl)methylene]-2-thioxo-3-dimethylamino-4-thiazolidinone], the inhibition at 4.15 µg/mL (stock) in assay [2] worked out at 48%.

In turn, `CCCCCCCOc1ccc(C=C2SC(=S)N(N(C)C)C2=O)cc1` [Example 83, 5-[(4-heptoxyphenyl)methylene]-2-thioxo-3-dimethylamino-4-thiazolidinone] registered an inhibition at 4.15 µg/mL (stock) in assay [2] of 47%.

On to `CCOc1cc(C=C2SC(=S)N(N(C)C)C2=O)ccc1O` [Example 90, 5-[(3-ethoxy-4-hydroxyphenyl)methylene]-2-thioxo-3-dimethylamino-4-thiazolidinone], for which, in assay [2], half-maximal inhibition (IC50) was put at 7.7 µM, the inhibition at 4.15 µg/mL (stock) was found to be 79%, the inhibition at 8.3 µg/mL (stock) came to 92% and the “ability to inhibit cathepsin D” value was “surprising ability to inhibit cathepsin D levels”.

As to `CCCCCCCOc1ccc(C=C2SC(=S)N(N)C2=O)cc1OC` [Example 80, 5-[(3-methoxy-4-heptoxyphenyl)methylene]-2-thioxo-3-amino-4-thiazolidinone], in assay [2], 47 µM corresponded to half-maximal inhibition (IC50) and the inhibition at 8.3 µg/mL (stock) was found to be 33%.

For the compound `C=CCN1C(=O)C(=Cc2ccc(OCCCCCCC)c(OC)c2)SC1=S` [Example 95, 5-[(3-methoxy-4-heptoxyphenyl)methylene]-2-thioxo-3-(2-propenyl)-4-thiazolidinone], in assay [2], the inhibition at 8.3 µg/mL (stock) stood at 36%.

As for `CN(C)c1ccc(C=C2SC(=S)NC2=O)cc1` [Example 82, 5-[[4-(dimethylamino)phenyl]methylene]-2-thioxo-4-thiazolidinone], in assay [2], the inhibition at 10 µg/mL (stock) is 73.5%.

Compound `O=C1NC(=S)SC1=Cc1cccc2ccccc12` [Example 75, 5-[(1-naphthyl)methylene]-2-thioxo-4-thiazolidinone] gave an inhibition at 10 µg/mL (stock) in assay [2] of 43%.

Turning to `CS(=O)(=O)Nc1cccc(C=C2SC(=S)N(CC(=O)O)C2=O)c1` [Example 86, 5-[(3-methanesulfonamidophenyl)methylene]-4-oxo-2-thioxo-3-thiazolidine acetic acid], the inhibition at 8.3 µg/mL (stock) in assay [2] was determined as 42%.

Take `CCOc1cc(C=C2SC(=S)N(C)C2=O)ccc1O` [Example 88, 5-[(3-ethoxy-4-hydroxyphenyl)methylene]-2-thioxo-3-methyl-4-thiazolidinone]: in assay [2], the IC50 came out at 11.2 µM, the inhibition at 4.15 µg/mL (stock) stood at 67%, the inhibition at 8.3 µg/mL (stock) came to 82% and the “ability to inhibit cathepsin D” value is “surprising ability to inhibit cathepsin D levels”.

`CCCCCCCOc1ccc(C=C2SC(=S)N(N(C)C)C2=O)cc1OCCCCCCC` [Example 93, 5-[(3,4-diheptoxyphenyl)methylene]-2-thioxo-3-dimethylamino-4-thiazolidinone] returned an IC50 in assay [2] of 7.5 µM.

With `CC(C)(C)c1cc(C=C2SC(=S)N(CC(=O)O)C2=O)cc(C(C)(C)C)c1O` [Example 53, 5-[[3,5-bis(1,1-dimethylethyl)-4-hydroxyphenyl]methylene]-4-oxo-2-thioxo-3-thiazolidine acetic acid], in assay [1] (setting [3]), the response vs control in vivo at 50 mg/kg amounted to 73 ± 4% and the response vs control in vivo at 100 mg/kg was 83 ± 9%. Further, in assay [1] (setting [4]), the response vs control in vivo at 50 mg/kg came to 55 ± 5% and the response vs control in vivo at 100 mg/kg is 80 ± 14%. Also, the “ability to lower blood glucose levels in mammals” value in assay [1] was “surprising ability to lower blood glucose levels in mammals”.

Take `CCC(C)c1cc(C=C2SC(=S)N(CC(=O)O)C2=O)cc(C(C)CC)c1O` (stereo not shown) [Example 59, 5-[[3,5-bis(1-methylpropyl)-4-hydroxyphenyl]methylene]-4-oxo-2-thioxo-3-thiazolidine acetic acid]: the response vs control in vivo at 50 mg/kg amounted to 62 ± 5% in assay [1] (setting [3]) and 59 ± 9% in assay [1] (setting [4]). Besides, in assay [1], the “ability to lower blood glucose levels in mammals” value is on record as “surprising ability to lower blood glucose levels in mammals”.

`CCOc1cc(C=C2SC(=S)N(N(C)C)C2=O)cc(CSc2ccccc2)c1O` [Example 89] gave an IC50 in assay [2] (50% inhibition of cathepsin D) of 9.2 µM. In assay [2], this compound displayed an inhibition at 8.3 µg/mL (stock) of 71%.

With `CCCCCOc1ccc(C=C2SC(=S)N(CC(=O)O)C2=O)cc1OCCCCC` [Example 91, 5-[(3,4-dipentoxyphenyl)methylene]-4-oxo-2-thioxo-3-thiazolidine acetic acid], in assay [2], the IC50 came to 9.7 µM, the inhibition at 4.15 µg/mL (stock) turned out to be 72% and the “ability to inhibit cathepsin D” value is “surprising ability to inhibit cathepsin D levels”.

For the compound `COc1cc(C=C2SC(=S)NC2=O)ccc1O` [Example 20, 5-[(3-methoxy-4-hydroxyphenyl)methylene]-2-thioxo-4-thiazolidinone], the results for the response vs control in vivo at 50 mg/kg in assay [1] (setting [3]) and in assay [1] (setting [4]) were 76 ± 3% and 70 ± 5%, respectively.
